In patent publication US20240150362A1, “Substituted Pyrrolotriazines” (Molecure S.A., priority 2022, published 2024):
Structures can show the parent of a compound that is named as a salt.

What follows are molecules tested against T1, full-length USP7 (Homo sapiens, UniProt Q93009) (assay: Enzymatic assay to determine % inhibition of USP7 activity at 1 μM test compound (Ubiquitin-Rhodamine 110 cleavage)). Settings: 1 μM of the test compound; given where IC50 has not been determined yet; mean of two repetitions.
T1 construct: A 45 μl reaction volume containing full-length USP7 (0.5-1.0 nM)
T1 sequence (Q93009 whole entry): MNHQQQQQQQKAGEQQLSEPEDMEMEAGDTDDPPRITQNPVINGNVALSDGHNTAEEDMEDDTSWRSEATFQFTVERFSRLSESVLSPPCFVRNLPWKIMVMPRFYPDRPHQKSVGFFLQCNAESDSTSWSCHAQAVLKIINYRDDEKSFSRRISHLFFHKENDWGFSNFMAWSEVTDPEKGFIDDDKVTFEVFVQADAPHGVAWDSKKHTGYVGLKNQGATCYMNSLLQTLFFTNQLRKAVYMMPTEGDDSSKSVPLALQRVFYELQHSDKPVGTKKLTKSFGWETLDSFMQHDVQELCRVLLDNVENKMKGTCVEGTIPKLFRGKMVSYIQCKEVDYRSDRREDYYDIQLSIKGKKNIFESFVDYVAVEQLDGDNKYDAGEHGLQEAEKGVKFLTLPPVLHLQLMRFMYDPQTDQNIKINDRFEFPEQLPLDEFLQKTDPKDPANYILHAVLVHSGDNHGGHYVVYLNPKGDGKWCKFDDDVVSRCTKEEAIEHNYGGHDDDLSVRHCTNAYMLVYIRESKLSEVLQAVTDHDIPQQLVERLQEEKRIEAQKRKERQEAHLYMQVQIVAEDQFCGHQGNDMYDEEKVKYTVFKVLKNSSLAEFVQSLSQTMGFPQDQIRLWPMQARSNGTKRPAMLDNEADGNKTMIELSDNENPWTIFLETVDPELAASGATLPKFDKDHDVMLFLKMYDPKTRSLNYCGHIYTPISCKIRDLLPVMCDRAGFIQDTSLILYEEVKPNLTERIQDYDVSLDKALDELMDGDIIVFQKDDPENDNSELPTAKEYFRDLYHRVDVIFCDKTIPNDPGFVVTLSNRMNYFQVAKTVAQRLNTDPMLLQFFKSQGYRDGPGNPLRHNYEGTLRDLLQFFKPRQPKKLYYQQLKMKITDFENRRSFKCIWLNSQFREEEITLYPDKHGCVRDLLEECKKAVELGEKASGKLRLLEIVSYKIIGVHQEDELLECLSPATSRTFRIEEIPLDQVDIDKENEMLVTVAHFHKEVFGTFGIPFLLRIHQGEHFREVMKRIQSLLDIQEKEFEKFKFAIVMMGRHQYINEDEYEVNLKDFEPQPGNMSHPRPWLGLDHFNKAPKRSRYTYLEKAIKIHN
Assay type: biochemical
Experimental: Enzymatic Assay to Determine % Value of Inhibition […] Activity at 1 μM […]
A 45 μl reaction volume containing full-length USP7 (0.5-1.0 nM) in 50 mM HEPES pH 7.5, 150 mM NaCl, 2 mM DTT, 1 mg/ml BSA and 0.05% Tween20 (DUB assay buffer) was assembled in wells of 96 well half area black flat bottom plates. All test compounds were first dissolved to 30 mM stocks in DMSO and subsequently introduced to enzyme 15 min after USP7 incubation with DTT at room temperature. The final concentration of tested compounds was 1 μM. The enzymatic reaction was started by adding 0.5 μM Ubiquitin-Rhodamine 110 (final concentration) and allowed to proceed for 30-60 min at 25° C., 250 RPM shaking before Rhodamine fluorescence (485 nm excitation/535 nm emission) was measured using Tecan Spark M10 plate reader. Percentage of inhibition at 1 μM was determined by the mean of two repetitions for these concentrations using Microsoft Excel software.
Work on Cc1cc(Cl)cc(-c2ncnn3cc(CO)cc23)c1O[C@H]1CCCNC1 [Example 17, (S)-(4-(5-chloro-3-methyl-2-(piperidin-3-yloxy)phenyl)pyrrolo[2,1-f][1,2,4]triazin-6-yl)methanol hydrochloride] yielded an inhibition at 1 µM of less than 20%. Molecule Cc1cc(Cl)cc(-c2ncnn3cc(C(N)=O)cc23)c1O[C@H]1CCCNC1 [Example 18, (S)-4-(5-chloro-3-methyl-2-(piperidin-3-yloxy)phenyl)pyrrolo[2,1-f][1,2,4]triazine-6-carboxamide hydrochloride] has an inhibition at 1 µM of less than 20%. CC1(C)C2C(=O)N(Cc3cc4c(-c5cc(C(F)(F)F)cc6ccn(CC7(O)CCNCC7)c56)ncnn4c3)C(=O)C21 (stereo not drawn) [Example 19, 3-((4-(1-((4-hydroxypiperidin-4-yl)methyl)-5-(trifluoromethyl)-1H-indol-7-yl)pyrrolo[2,1-f][1,2,4]triazin-6-yl)methyl)-6,6-dimethyl-3-azabicyclo[3.1.0]hexane-2,4-dione hydrochloride] showed an inhibition at 1 µM of 50 to 70%. Cc1cc(Cl)cc(-c2ncnn3cc(CN4C(=O)C5C(C4=O)C5(C)C)cc23)c1O[C@@H]1CN[C@@H](C)C1 (stereo partly drawn) [Example 20, 3-((4-(5-chloro-3-methyl-2-(((3S,5S)-5-methylpyrrolidin-3-yl)oxy)phenyl)pyrrolo[2,1-f][1,2,4]triazin-6-yl)methyl)-6,6-dimethyl-3-azabicyclo[3.1.0]hexane-2,4-dione hydrochloride] showed an inhibition at 1 µM of 20 to 49%. For Cc1c(CN2C(=O)C3C(C2=O)C3(C)C)cn2ncnc(-c3cc(Cl)cc4ccn(CC5(F)CCNCC5)c34)c12 (stereo not drawn) [Example 21, 3-((4-(5-chloro-1-((4-fluoropiperidin-4-yl)methyl)-1H-indol-7-yl)-5-methylpyrrolo[2,1-f][1,2,4]triazin-6-yl)methyl)-6,6-dimethyl-3-azabicyclo[3.1.0]hexane-2,4-dione hydrochloride], the inhibition at 1 µM was 50 to 70%. Work on Cc1cc(Cl)cc(-c2ncnn3cc(CN4C(=O)C5C(C4=O)C5(C)C)cc23)c1C(=O)N1C[C@@H](N)[C@@H](C)C1 (stereo partly drawn) [Example 23, 3-((4-(2-((3S,4S)-3-amino-4-methylpyrrolidine-1-carbonyl)-5-chloro-3-methylphenyl)pyrrolo[2,1-f][1,2,4]triazin-6-yl)methyl)-6,6-dimethyl-3-azabicyclo[3.1.0]hexane-2,4-dione 2,2,2-trifluoroacetate] yielded an inhibition at 1 µM of 50 to 70%. CC1(C)C2C(=O)N(Cc3cc4c(-c5cc(Cl)cc6ccn(CC7CNCC(F)(F)C7)c56)ncnn4c3)C(=O)C21 (stereo not drawn) [Example 26, 3-((4-(5-chloro-1-((5,5-difluoropiperidin-3-yl)methyl)-1H-indol-7-yl)pyrrolo[2,1-f][1,2,4]triazin-6-yl)methyl)-6,6-dimethyl-3-azabicyclo[3.1.0]hexane-2,4-dione dihydrochloride] gave an inhibition at 1 µM of 20 to 49%. Cc1cc(Cl)cc(-c2ncnn3cc(CN4C(=O)C5C(C4=O)C5(C)C)cc23)c1O[C@@H]1CNCC(F)(F)C1 (stereo partly drawn) [Example 28, 3-((4-(5-chloro-2-(((S)-5,5-difluoropiperidin-3-yl)oxy)-3-methylphenyl)pyrrolo[2,1-f][1,2,4]triazin-6-yl)methyl)-6,6-dimethyl-3-azabicyclo[3.1.0]hexane-2,4-dione 2,2,2-trifluoroacetate] gave an inhibition at 1 µM of less than 20%. For CC1(C)C2C(=O)N(Cc3cc4c(-c5cc(F)cc6ccn(C[C@@H]7CNCCO7)c56)ncnn4c3)C(=O)C21 (stereo partly drawn) [Example 33, 3-((4-(5-fluoro-1-(((S)-morpholin-2-yl)methyl)-1H-indol-7-yl)pyrrolo[2,1-f][1,2,4]triazin-6-yl)methyl)-6,6-dimethyl-3-azabicyclo[3.1.0]hexane-2,4-dione 2,2,2-trifluoroacetate], the inhibition at 1 µM was greater than 70%. Molecule COC(=O)c1cc(-c2ncnn3cc(CN4C(=O)C5C(C4=O)C5(C)C)cc23)c2c(ccn2C[C@@H]2CNCCO2)c1 (stereo partly drawn) [Example 34, methyl 7-(6-((6,6-dimethyl-2,4-dioxo-3-azabicyclo[3.1.0]hexan-3-yl)methyl)pyrrolo[2,1-f][1,2,4]triazin-4-yl)-1-(((S)-morpholin-2-yl)methyl)-1H-indole-5-carboxylate 2,2,2-trifluoroacetate] has an inhibition at 1 µM of less than 20%. Molecule CC1(C)NC(=O)N(Cc2cc3c(-c4cc(Cl)cc5ccn(C[C@@H]6CNCCO6)c45)ncnn3c2)C1=O [Example 36, (S)-3-((4-(5-chloro-1-(morpholin-2-ylmethyl)-1H-indol-7-yl)pyrrolo[2,1-f][1,2,4]triazin-6-yl)methyl)-5,5-dimethylimidazolidine-2,4-dione hydrochloride] has an inhibition at 1 µM of 50 to 70%. Cc1cc(Cl)cc(-c2ncnn3cc(CN4C(=O)C5C(C4=O)C5(C)C)cc23)c1CC1CNCC(F)(F)CO1 (stereo not drawn) [Example 38, 3-((4-(5-chloro-2-((6,6-difluoro-1,4-oxazepan-2-yl)methyl)-3-methylphenyl)pyrrolo[2,1-f][1,2,4]triazin-6-yl)methyl)-6,6-dimethyl-3-azabicyclo[3.1.0]hexane-2,4-dione hydrochloride] was tested, and the inhibition at 1 µM was less than 20%. Work on Cc1cc(Cl)cc(-c2ncnn3cc(CN4C(=O)C5C(C4=O)C5(C)C)cc23)c1CC1CN[C@H](C)CO1 (stereo partly drawn) [Example 40, 3-((4-(5-chloro-3-methyl-2-(((5R)-5-methylmorpholin-2-yl)methyl)phenyl)pyrrolo[2,1-f][1,2,4]triazin-6-yl)methyl)-6,6-dimethyl-3-azabicyclo[3.1.0]hexane-2,4-dione hydrochloride] yielded an inhibition at 1 µM of 50 to 70%. Cc1cc(Cl)cc(-c2ncnn3cc(CN4C(=O)C5C(C4=O)C5(C)C)cc23)c1CC1CNCC(CF)O1 (stereo not drawn) [Example 42, 3-((4-(5-chloro-2-((6-(fluoromethyl)morpholin-2-yl)methyl)-3-methylphenyl)pyrrolo[2,1-f][1,2,4]triazin-6-yl)methyl)-6,6-dimethyl-3-azabicyclo[3.1.0]hexane-2,4-dione hydrochloride] was tested, and the inhibition at 1 µM was 50 to 70%. Work on CC1(C)C2C(=O)N(Cc3cc4c(-c5cc(C(=O)O)cc6ccn(C[C@@H]7CNCCO7)c56)ncnn4c3)C(=O)C21 (stereo partly drawn) [Example 47, 7-(6-((6,6-dimethyl-2,4-dioxo-3-azabicyclo[3.1.0]hexan-3-yl)methyl)pyrrolo[2,1-f][1,2,4]triazin-4-yl)-1-(((S)-morpholin-2-yl)methyl)-1H-indole-5-carboxylic acid hydrochloride] yielded an inhibition at 1 µM of less than 20%. Cc1cc(Cl)cc(-c2ncnn3cc(CN4C(=O)C5C(C4=O)C5(C)C)cc23)c1OC[C@H]1CNCCO1 (stereo partly drawn) [Example 52, 3-((4-(5-chloro-3-methyl-2-(((R)-morpholin-2-yl)methoxy)phenyl)pyrrolo[2,1-f][1,2,4]triazin-6-yl)methyl)-6,6-dimethyl-3-azabicyclo[3.1.0]hexane-2,4-dione hydrochloride] showed an inhibition at 1 µM of 20 to 49%. Molecule Cc1cc(Cl)cc(-c2ncnn3cc(CN4C(=O)C5C(C4=O)C5(C)C)cc23)c1OC[C@@H]1CCCNC1 (stereo partly drawn) [Example 53, 3-((4-(5-chloro-3-methyl-2-(((R)-piperidin-3-yl)methoxy)phenyl)pyrrolo[2,1-f][1,2,4]triazin-6-yl)methyl)-6,6-dimethyl-3-azabicyclo[3.1.0]hexane-2,4-dione hydrochloride] has an inhibition at 1 µM of 20 to 49%. With CC1(C)C2C(=O)N(Cc3cc4c(-c5cc(Cl)cc6c5N(C5CCNCC5)CCC6)ncnn4c3)C(=O)C21 (stereo not drawn) [Example 54, 3-((4-(6-chloro-1-(piperidin-4-yl)-1,2,3,4-tetrahydroquinolin-8-yl)pyrrolo[2,1-f][1,2,4]triazin-6-yl)methyl)-6,6-dimethyl-3-azabicyclo[3.1.0]hexane-2,4-dione hydrochloride] the inhibition at 1 µM was greater than 70%.
